Source: PubChem BioAssay (NCI)
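Step 1: Grow cells in 96-well plates. Step 2: Expose to compound for 48 hours at 5 concentrations. Step 3: Interpolate endpoints linearly; if unreached, use highest concentration. GI50 = concentration required for 50% inhibition of growth. TGI: total growth inhibition.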

Tested on: NCI/ADR-RES ovarian
Assay: NCI tumour cell line growth inhibition, 48 h

Compound | GI50 [µM] | TGI [µM]
O=S(=O)(Nc1cc(Sc2cccc3cccnc23)c(O)c2ccccc12)c1ccccc1 | 0.931 | 11
CN(C)C(=O)[C@H](O)[C@H](Cc1ccccc1)NC(=O)c1cc2cc(Cl)ccc2[nH]1 | 22.7 | > 100
CC(C)(C[C@H]1CN(S(=O)(=O)c2cccc(C(F)(F)F)c2)c2cc(-c3cc(F)cc(OC(F)F)c3)ccc2O1)C(=O)O | 5.07 | 30.9
Cc1ccc(-c2nc3ccc(Cl)cc3c(=O)n2N2C(=O)CSC2c2ccccc2Cl)cc1 (centres undefined) | 8.87 | > 100
O=C(O)C1C(Br)(c2ccccc2)C1(Br)c1ccccc1 (centres undefined) |  | > 100
C#Cc1c(I)n(C2OC(CO[Si](C)(C)C(C)(C)C)C3OC(C)(C)OC32)c(=O)[nH]c1=O (centres undefined) | 23.5 | 59.1
CCSc1nc(SCC)c2cn[nH]c2n1 | > 100 | > 100
ClCC[N+]12CC[N+](CCCl)(CC1)C2 |  | > 100
COc1cc(C(=O)c2cc(C)c3[nH]c4ccc(C)cc4c3c2C)cc(OC)c1OC | < 0.01 | > 32.9
Cc1ccc2[nH]c(O)c(N=Nc3ccc(S(N)(=O)=O)cc3)c2c1 | 18.2 | > 25
C/C(N=NC(=S)N(C)C)=C1\C=CC=CN1O |  | 21.1
C=C1CCC(CC[C@@H]2CC[C@]3(OC2)O[C@@]2(O)CC[C@]3(C)OC2(C)C)C(C)(C)[C@H]1C/C=C1/C(=O)OC[C@@H]1O (some centres undefined) |  | 6.92
Cn1c(=O)c(Cc2ccccc2F)cc2cnc(NC3CCOCC3)nc21 | > 25 | > 25
CC1(C)[C@@H](OC(N)=O)[C@H]2O[C@H]2[C@]2(C=O)[C@H]3CC[C@]4(C)[C@@H](c5ccc(=O)oc5)[C@@H](Cl)C[C@]4(O)C3=CC[C@@H]12 | 0.00589 | 0.0142
CCCCON(OC(=O)c1ccc2ccc3cccc4ccc1c2c34)C(C)=O | 21.9 | 60.7
Cc1[nH]c2ccccc2c(=O)c1CC=C(Cl)Cl | 44.2 | > 100
C1CCC([PH+](C2CCCCC2)C2CCCCC2[PH+](C2CCCCC2)C2CCCCC2)CC1.O=C(C1[CH-]CCCC1)C1CCCC[N-]1.[Au] (centres undefined) | 1.8 | > 100
Clc1ccc(C=Nc2ccc3c(c2)Cc2ccccc2-3)c(Cl)c1 |  | > 100
CN(C)CCN1C(=O)c2ccc3c4c(ccc(c24)C1=O)C(=O)N(CCN=C=S)C3=O | 0.0524 | 0.495
O=C(/C=C\c1ccc(NCc2ccc(C(=O)O)cc2)cc1)CCl | 17.8 | 39.6
COc1cccc(C#Cc2ccccc2C#CCCCCO)c1 | 5.44 | 20
CC(C)C[C@H](NC(=O)/C=C/Cn1ccc2ccccc2c1=O)B(O)O | 90.8 | > 100
CC1=C[C@H]2c3c(c(O)c(O)c4oc(-c5ccccc5)cc(=O)c34)[C@H](c3cc(O)c(O)c4oc(-c5ccccc5)cc(=O)c34)[C@H]2C(C)(C)C1 | 3.55 | 25.3
COc1ccc(/C=C/C(=O)C(CC2CCC2)C(=O)/C=C/c2ccc(OC)c(OC)c2)cc1OC | 2.58 | > 100
CCCCCCCCCCCCCCCCCCOc1ccccc1CC(=O)OCC[N+]1(C)CCCC1 | 15.1 | 42.4

Tested on: OVCAR-5 ovarian
Assay: NCI tumour cell line growth inhibition, 48 h

Compound | GI50 [µM] | TGI [µM]
Nc1ccc(-c2nc3ccc(Cc4ccc5nc(-c6ccc(N)cc6)[nH]c5c4)cc3[nH]2)cc1 | 12 | 30
O=S(=O)(Nc1cc(Sc2cccc3cccnc23)c(O)c2ccccc12)c1ccccc1 | 1.99 | 11
CN(C)C(=O)[C@H](O)[C@H](Cc1ccccc1)NC(=O)c1cc2cc(Cl)ccc2[nH]1 | 19.1 | 49.9
CC(C)(C[C@H]1CN(S(=O)(=O)c2cccc(C(F)(F)F)c2)c2cc(-c3cc(F)cc(OC(F)F)c3)ccc2O1)C(=O)O | 12.6 | 25.9
Cc1ccc(-c2nc3ccc(Cl)cc3c(=O)n2N2C(=O)CSC2c2ccccc2Cl)cc1 (centres undefined) | > 100 | > 100
O=C(O)C1C(Br)(c2ccccc2)C1(Br)c1ccccc1 (centres undefined) |  | > 100
C#Cc1c(I)n(C2OC(CO[Si](C)(C)C(C)(C)C)C3OC(C)(C)OC32)c(=O)[nH]c1=O (centres undefined) | 20.4 | 37
CCSc1nc(SCC)c2cn[nH]c2n1 | 69.1 | > 100
ClCC[N+]12CC[N+](CCCl)(CC1)C2 |  | > 100
COc1cc(C(=O)c2cc(C)c3[nH]c4ccc(C)cc4c3c2C)cc(OC)c1OC | < 0.01 | > 100
Cc1ccc2[nH]c(O)c(N=Nc3ccc(S(N)(=O)=O)cc3)c2c1 | > 25 | > 25
C/C(N=NC(=S)N(C)C)=C1\C=CC=CN1O |  | > 100
C=C1CCC(CC[C@@H]2CC[C@]3(OC2)O[C@@]2(O)CC[C@]3(C)OC2(C)C)C(C)(C)[C@H]1C/C=C1/C(=O)OC[C@@H]1O (some centres undefined) |  | 6.65
Cn1c(=O)c(Cc2ccccc2F)cc2cnc(NC3CCOCC3)nc21 | > 25 | > 25
CC1(C)[C@@H](OC(N)=O)[C@H]2O[C@H]2[C@]2(C=O)[C@H]3CC[C@]4(C)[C@@H](c5ccc(=O)oc5)[C@@H](Cl)C[C@]4(O)C3=CC[C@@H]12 | 0.00606 | 0.0151
CCCCON(OC(=O)c1ccc2ccc3cccc4ccc1c2c34)C(C)=O | 23.2 | 92
Cc1[nH]c2ccccc2c(=O)c1CC=C(Cl)Cl | > 100 | > 100
C1CCC([PH+](C2CCCCC2)C2CCCCC2[PH+](C2CCCCC2)C2CCCCC2)CC1.O=C(C1[CH-]CCCC1)C1CCCC[N-]1.[Au] (centres undefined) | 0.343 | 1.53
Clc1ccc(C=Nc2ccc3c(c2)Cc2ccccc2-3)c(Cl)c1 |  | > 100
CN(C)CCN1C(=O)c2ccc3c4c(ccc(c24)C1=O)C(=O)N(CCN=C=S)C3=O | 0.153 | 0.815
O=C(/C=C\c1ccc(NCc2ccc(C(=O)O)cc2)cc1)CCl | 17.8 | 34.5
COc1cccc(C#Cc2ccccc2C#CCCCCO)c1 | 14.6 | 29.3
CC(C)C[C@H](NC(=O)/C=C/Cn1ccc2ccccc2c1=O)B(O)O | 4.36 | 39.8
CC1=C[C@H]2c3c(c(O)c(O)c4oc(-c5ccccc5)cc(=O)c34)[C@H](c3cc(O)c(O)c4oc(-c5ccccc5)cc(=O)c34)[C@H]2C(C)(C)C1 | 3.22 | 13
COc1ccc(/C=C/C(=O)C(CC2CCC2)C(=O)/C=C/c2ccc(OC)c(OC)c2)cc1OC | 2.55 | 5.6
CCCCCCCCCCCCCCCCCCOc1ccccc1CC(=O)OCC[N+]1(C)CCCC1 | 2.02 | 5.31

Tested on: SF-268 CNS
Assay: NCI tumour cell line growth inhibition, 48 h

Compound | GI50 [µM] | TGI [µM]
Nc1ccc(-c2nc3ccc(Cc4ccc5nc(-c6ccc(N)cc6)[nH]c5c4)cc3[nH]2)cc1 | 4.23 | 26.9
O=S(=O)(Nc1cc(Sc2cccc3cccnc23)c(O)c2ccccc12)c1ccccc1 | 1.48 | 12.8
CN(C)C(=O)[C@H](O)[C@H](Cc1ccccc1)NC(=O)c1cc2cc(Cl)ccc2[nH]1 | 21.1 | 73.3
CC(C)(C[C@H]1CN(S(=O)(=O)c2cccc(C(F)(F)F)c2)c2cc(-c3cc(F)cc(OC(F)F)c3)ccc2O1)C(=O)O | 10.3 | 24.7
Cc1ccc(-c2nc3ccc(Cl)cc3c(=O)n2N2C(=O)CSC2c2ccccc2Cl)cc1 (centres undefined) | 9.97 | > 100
O=C(O)C1C(Br)(c2ccccc2)C1(Br)c1ccccc1 (centres undefined) |  | 69.7
C#Cc1c(I)n(C2OC(CO[Si](C)(C)C(C)(C)C)C3OC(C)(C)OC32)c(=O)[nH]c1=O (centres undefined) | 12.3 | 27.8
CCSc1nc(SCC)c2cn[nH]c2n1 | 26.3 | 77.5
ClCC[N+]12CC[N+](CCCl)(CC1)C2 |  | > 100
COc1cc(C(=O)c2cc(C)c3[nH]c4ccc(C)cc4c3c2C)cc(OC)c1OC | < 0.0186 | > 100
Cc1ccc2[nH]c(O)c(N=Nc3ccc(S(N)(=O)=O)cc3)c2c1 | 11.8 | > 25
C/C(N=NC(=S)N(C)C)=C1\C=CC=CN1O |  | > 100
C=C1CCC(CC[C@@H]2CC[C@]3(OC2)O[C@@]2(O)CC[C@]3(C)OC2(C)C)C(C)(C)[C@H]1C/C=C1/C(=O)OC[C@@H]1O (some centres undefined) |  | 8.89
